From article PMC6272428 (Molecules, 2015)

Columns and labels:
[1] = Stability of the four compounds in rat plasma QC samples (freeze-thaw, storage at −80 °C, autosampler); format: physicochemical; details: for Stability, Autosampler for 24 h, Accuracy: processed rat plasma, auto-sampler 4 °C for 24 h; for Stability, Freeze-thaw cycles, Accuracy / Stability, At −80 °C for a Month, Accuracy: rat plasma; for Stability, Freeze-thaw cycles, Accuracy: three freeze-thaw cycles −80 °C to 20 °C
Experimental: Stability of the four analytes during the sample storing and processing procedures was fully evaluated by analysis of QC samples.
Three QC samples (five samples for each) were tested for pre-treatment, post-treatment, three freeze-thaw cycles and long-term stabilities. Pre-treatment stability was assessed by exposing QC samples at room temperature for 4 h. Post-treatment stability was evaluated by placing QC samples in the auto-sampler at 4 °C for 24 h. For freeze–thaw cycle stability assessment, QC samples were repeatedly frozen and thawed for three cycles from −80 °C to 20 °C. […]

[2] = Pharmacokinetics of four compounds in plasma after oral administration of GSBXD and its plus-minus prescriptions in normal rats (LC-MS/MS); format: in vivo; details: Wistar, rat
Experimental: Plasma samples (200 μL) and IS solution (50 μL, 1215 ng/mL for diphenhydramine, 476 ng/mL for chloromycetin) were added in an Eppendorf tube, and this mixture was extracted with methanol (550 μL) by shaking on a vortex-mixer for 2 min, and centrifuged for 10 min at 13,000 rpm. The contents were evaporated to dryness on a rotary evaporator at 37 °C. The residue was reconstituted in methanol (100 μL) and centrifuged (13,000 rpm for 10 min). The supernatant was transferred to an auto sample vail and an aliquot of 5 μL was injected onto the UPLC-MS/MS system for analysis.
The developed and validated method was applied to the pharmacokinetic evaluation of the four compounds after oral administration of different fractions to normal rats (Figure 3).
Raw materials of Glycyrrhiza uralensis Fisch (Gancao), Paeonia lactiflora Pall (Baishao), Pinellia ternata Breit (Banxia) in a weight ratio of 10:15:9 (50, 75 and 45 g) were crushed into small pieces. The mixture was refluxed with 1.7 L water for 1 h and with 1.36 L water for 1 h. The filtrates were combined and concentrated below 70 °C to obtain a certain volume at the ratio of 1.5:1 (w/w, weight of all constituting herbs and the extract filtrates) under vacuum. Powder of Euphorbia kansui T. N. Liou ex T. P. Wang. […] The same method was used to prepare GSBXD minus Gancao (GSBXD-GC); GSBXD minus Gansui (GSBXD-GS); GSBXD minus Gancao and Gansui (GSBXD-GG); the extract of Gancao and Gansui (GG) and the extract of Gancao (GC). The extracts contained 19.21, 18.73, 46.53, 15.82 μg/mL of compounds 1–4 in GSBXD; 0, 0, 51.03, 17.88 μg/mL of compounds 1–4 in GSBXD-GC; 19.21, 18.73, 46.53, 15.82 μg/mL of compounds 1–4 in GSBXD-GS; 0, 0, 51.03, 17.88 μg/mL of compounds 1–4 in GSBXD-GG; 20.03, 17.09, 0, 0 μg/mL of compounds 1–4 in GG, 20.03, 17.09, 0, 0 μg/mL of compounds 1–4 in GC.
For pharmacokinetic studies, Wistar rats were divided into ten groups (n = 6 per group). Rats in the normal and model GSBXD groups were administered GSBXD at a dose of 15 mL/kg intragastrically. In the normal and model GSBXD-GC groups, GSBXD-GC (12 mL/kg) was administrated. In the normal and model GSBXD-GS groups, GSBXD-GS (15 mL/kg) was administrated. In the normal and model GSBXD-GC-GS groups, GSBXD-GC-GS (12 mL/kg) was administrated. In the normal and model GG groups, GG (7.5 mL/kg) was administrated. Blood samples were collected at specific time points before (0 min) and after oral administration (5, 10, 20, 40, 60, 120, 240, 360, 480, 600 and 1440 min). A total of 720 blood samples were collected. All the blood samples were immediately centrifuged at 2500 rpm for 10 min to obtain plasma, which was labeled and frozen at −80 °C until analysis. Blank plasma was obtained from the rats without oral administration and was used to investigate the assay development and validation.
To determine the pharmacokinetic parameters of compounds 1–4 in different groups, concentration–time data were analyzed by DAS 3.2 software (Mathematical Pharmacology Professional Committee of China, Shanghai, China, 2011). Data were expressed as the mean […] standard deviation (S.D.) with triplicate measurements. The identification of significances between different groups was carried out with Student’s t-test. A P value < 0.05 was considered statistically significant.

[3] = high QC concentration (1.23 × 10^3, 1.11 × 10^3, 1.14 × 10^3, 1.42 × 10^3 ng/mL for 1–4)
[4] = low QC concentration (1.91 × 10, 4.32, 1.78 × 10, 1.11 × 10 ng/mL for 1–4)
[5] = middle QC concentration (3.09 × 10^2, 1.38 × 10^2, 1.43 × 10^2, 1.77 × 10^2 ng/mL for 1–4)
[6] = 7.5 mL/kg, group GG (extract of Gancao and Gansui), 7.5 mL/kg oral, normal rats, n = 6, mean ± S.D.
[7] = 15 mL/kg, group GSBXD, 15 mL/kg intragastrically, normal rats, n = 6, mean ± S.D.
[8] = 15 mL/kg, group GSBXD-GS (GSBXD minus Gansui), 15 mL/kg oral, normal rats, n = 6, mean ± S.D.
[9] = group GC (extract of Gancao), oral, normal rats, n = 6, mean ± S.D.
[10] = 12 mL/kg, group GSBXD-GC (GSBXD minus Gancao), 12 mL/kg oral, normal rats, n = 6, mean ± S.D.
[11] = 12 mL/kg, group GSBXD-GG (GSBXD minus Gancao and Gansui), 12 mL/kg oral, normal rats, n = 6, mean ± S.D.

Compound: CC1(C)[C@@H](O[C@H]2O[C@H](C(=O)O)[C@@H](O)[C@H](O)[C@H]2O[C@@H]2O[C@H](C(=O)O)[C@@H](O)[C@H](O)[C@H]2O)CC[C@]2(C)[C@H]3C(=O)C=C4[C@@H]5C[C@@](C)(C(=O)O)CC[C@]5(C)CC[C@@]4(C)[C@]3(C)CC[C@@H]12 [Compound 1, glycyrrhizinic acid]
- Stability, Autosampler for 24 h, Accuracy [1, 3]: 87.36%
- Stability, Autosampler for 24 h, Accuracy [1, 4]: 93.94%
- Stability, Autosampler for 24 h, Accuracy [1, 5]: 92.23%
- Stability, Freeze-thaw cycles, Accuracy [1, 3]: 94.33%
- Stability, Freeze-thaw cycles, Accuracy [1, 4]: 98.83%
- Stability, Freeze-thaw cycles, Accuracy [1, 5]: 91.02%
- Stability, At −80 °C for a Month, Accuracy [1, 3]: 98.18%
- Stability, At −80 °C for a Month, Accuracy [1, 4]: 89.99%
- Stability, At −80 °C for a Month, Accuracy [1, 5]: 91.37%
- AUC(0-t) [2, 6]: 0.788 ± 0.11 µg·h/mL
- Cmax [2, 6]: 0.364 ± 0.0462 µg/mL
- Tmax [2, 6]: 0.64 ± 0.34 h
- half-life [2, 6]: 9.29 ± 4.7 h
- AUC(0-t) [2, 7]: 2.63 ± 0.532 µg·h/mL
- Cmax [2, 7]: 0.503 ± 0.199 µg/mL
- Tmax [2, 7]: 0.33 h
- half-life [2, 7]: 5.93 ± 2.67 h
- AUC(0-t) [2, 8]: 1.28 ± 0.393 µg·h/mL
- Cmax [2, 8]: 0.214 ± 0.0554 µg/mL
- Tmax [2, 8]: 1.67 ± 0.12 h
- half-life [2, 8]: 11.6 ± 5.74 h
- AUC(0-t) [2, 9]: 0.486 ± 0.136 µg·h/mL
- Cmax [2, 9]: 0.147 ± 0.0199 µg/mL
- Tmax [2, 9]: 0.36 ± 0.16 h
- half-life [2, 9]: 0.79 ± 0.39 h

Compound: O=C1C[C@@H](c2ccc(O[C@@H]3O[C@H](CO)[C@@H](O)[C@H](O)[C@H]3O)cc2)Oc2cc(O)ccc21 [Compound 2, liquiritin]
- Stability, Autosampler for 24 h, Accuracy [1, 3]: 97.11%
- Stability, Autosampler for 24 h, Accuracy [1, 4]: 88.92%
- Stability, Autosampler for 24 h, Accuracy [1, 5]: 97.49%
- Stability, Freeze-thaw cycles, Accuracy [1, 3]: 95.35%
- Stability, Freeze-thaw cycles, Accuracy [1, 5]: 89.99%
- Stability, At −80 °C for a Month, Accuracy [1, 3]: 96.71%
- Stability, At −80 °C for a Month, Accuracy [1, 4]: 91.03%
- Stability, At −80 °C for a Month, Accuracy [1, 5]: 99.99%
- AUC(0-t) [2, 6]: 0.788 ± 0.11 µg·h/mL
- Cmax [2, 6]: 0.2 ± 0.0424 µg/mL
- Tmax [2, 6]: 0.32 ± 0.27 h
- half-life [2, 6]: 12.9 ± 4.76 h
- AUC(0-t) [2, 7]: 0.794 ± 0.142 µg·h/mL
- Cmax [2, 7]: 0.193 ± 0.0845 µg/mL
- Tmax [2, 7]: 0.39 ± 0.14 h
- half-life [2, 7]: 7.04 ± 2.99 h
- AUC(0-t) [2, 8]: 0.421 ± 0.222 µg·h/mL
- Cmax [2, 8]: 0.0989 ± 0.0268 µg/mL
- Tmax [2, 8]: 0.17 ± 0.11 h
- half-life [2, 8]: 6.84 ± 3.11 h
- AUC(0-t) [2, 9]: 0.797 ± 0.174 µg·h/mL
- Cmax [2, 9]: 0.139 ± 0.0335 µg/mL
- Tmax [2, 9]: 0.5 ± 0.18 h
- half-life [2, 9]: 5.26 ± 1.93 h

Compound: C[C@@]12C[C@@]3(O)O[C@@H](O1)[C@]1(COC(=O)c4ccccc4)[C@H]3C[C@@]12O[C@@H]1O[C@H](CO)[C@@H](O)[C@H](O)[C@H]1O [Compound 3, paeoniflorin]
- Stability, Autosampler for 24 h, Accuracy [1, 3]: 104.13%
- Stability, Autosampler for 24 h, Accuracy [1, 4]: 98.03%
- Stability, Autosampler for 24 h, Accuracy [1, 5]: 91.28%
- Stability, Freeze-thaw cycles, Accuracy [1, 3]: 91.57%
- Stability, Freeze-thaw cycles, Accuracy [1, 4]: 87.63%
- Stability, Freeze-thaw cycles, Accuracy [1, 5]: 92.10%
- Stability, At −80 °C for a Month, Accuracy [1, 3]: 89.55%
- Stability, At −80 °C for a Month, Accuracy [1, 4]: 87.54%
- Stability, At −80 °C for a Month, Accuracy [1, 5]: 95.32%
- Tmax ([2]; 12 mL/kg): 0.5 ± 0.28 h
- AUC(0-t) [2, 10]: 0.362 ± 0.0404 µg·h/mL
- Cmax [2, 10]: 0.0741 ± 0.026 µg/mL
- Tmax [2, 10]: 0.31 ± 0.07 h
- half-life [2, 10]: 16 ± 2.62 h
- AUC(0-t) [2, 11]: 0.659 ± 0.411 µg·h/mL
- Cmax [2, 11]: 0.15 ± 0.0245 µg/mL
- half-life [2, 11]: 21.4 ± 8.85 h
- AUC(0-t) [2, 7]: 0.825 ± 0.096 µg·h/mL
- Cmax [2, 7]: 0.0828 ± 0.0157 µg/mL
- Tmax [2, 7]: 0.81 ± 0.34 h
- half-life [2, 7]: 12.6 ± 7.46 h
- AUC(0-t) [2, 8]: 0.91 ± 0.476 µg·h/mL
- Cmax [2, 8]: 0.101 ± 0.018 µg/mL
- Tmax [2, 8]: 1.33 ± 0.37 h
- half-life [2, 8]: 7.9 ± 1.17 h

Compound: CC12CC(O)C3CC1(OC1OC(CO)C(O)C(O)C1O)C3(COC(=O)c1ccccc1)C(=O)O2 (stereo not drawn) [Compound 4, albiflorin]
- Stability, Autosampler for 24 h, Accuracy [1, 3]: 99.91%
- Stability, Autosampler for 24 h, Accuracy [1, 4]: 97.15%
- Stability, Autosampler for 24 h, Accuracy [1, 5]: 91.22%
- Stability, Freeze-thaw cycles, Accuracy [1, 3]: 98.33%
- Stability, Freeze-thaw cycles, Accuracy [1, 4]: 93.49%
- Stability, Freeze-thaw cycles, Accuracy [1, 5]: 102.34%
- Stability, At −80 °C for a Month, Accuracy [1, 3]: 88.48%
- Stability, At −80 °C for a Month, Accuracy [1, 4]: 101.5%
- Stability, At −80 °C for a Month, Accuracy [1, 5]: 79.13%
- AUC(0-t) [2, 10]: 0.619 ± 0.13 µg·h/mL
- Cmax [2, 10]: 0.0885 ± 0.0183 µg/mL
- Tmax [2, 10]: 0.81 ± 0.62 h
- half-life [2, 10]: 7.74 ± 0.74 h
- AUC(0-t) [2, 11]: 0.785 ± 0.158 µg·h/mL
- Cmax [2, 11]: 0.113 ± 0.0258 µg/mL
- Tmax [2, 11]: 0.56 ± 0.27 h
- half-life [2, 11]: 8.73 ± 0.98 h
- AUC(0-t) [2, 7]: 1.11 ± 0.346 µg·h/mL
- Cmax [2, 7]: 0.255 ± 0.098 µg/mL
- Tmax [2, 7]: 0.33 ± 0.18 h
- half-life [2, 7]: 8.06 ± 1.44 h
- AUC(0-t) [2, 8]: 0.514 ± 0.271 µg·h/mL
- Cmax [2, 8]: 0.142 ± 0.0398 µg/mL
- Tmax [2, 8]: 0.28 ± 0.14 h
- half-life [2, 8]: 9.07 ± 0.87 h
